# pIC50: −log10 of the molar value. Where two headings read alike, the source gives them in different places.
# Experiments:
# [1] = design: method as in PMID 23183235; conditions: human liver microsomes; cited from earlier work
# [2] = system: cytochrome P450 system, five major isoforms; design: method as in PMID 23183235; conditions: half-maximal inhibition concentration values above levels expected to cause drug–drug interactions; cited from earlier work
# [3] = In vitro dephosphorylation by brain homogenate (inorganic phosphate release); format: in vitro ADME, mouse; conditions: 50 nmol CLR01, 1.5 mg mouse-brain homogenate, 60 min at 60°C
# Procedure: Potential dephosphorylation of CLR01 was analyzed by incubating 100 nmol CLR01 with 0.08 units of alkaline phosphatase (ALP; calf intestinal alkaline phosphatase, Promega, Madison, Wisconsin) for 60 min at 60°C. One enzymatic unit is defined as the amount of enzyme required for catalyzing the hydrolysis of 1 μmol of p-nitrophenylphosphate per minute. p-Nitrophenylphosphate disodium salt at 5–50 nmol (Fisher, Waltham, Massachusetts) was used for generation of a standard curve. The amount of inorganic phosphate generated was measured spectrophotometrically using an EnzChek Phosphate Assay kit (Life Technologies, Carlsbad, California) according to the manufacturer’s instructions on a DU-640 spectrophotometer (Beckman Coulter, Brea, California) at λ = 360 nm. Baseline values were subtracted from readings and compared to the standard curve resulting from serial ALP reactions to calculate the amount of inorganic phosphate. Similarly, potential dephosphorylation of CLR01 by brain homogenates was measured. For these experiments, one brain hemisphere was homogenized by sonication in the presence of cOmplete protease-inhibitor cocktail (Roche, Penzberg, Germany). Protein concentration was measured using a BCA Protein Assay Kit (Pierce, Rockford, Illinois). […]
# porcine brain tubulin = biological target: T1, porcine brain tubulin (Sus scrofa, UniProt P02550+P02554); assay: Inhibition of tubulin polymerization (turbidity, absorbance at 340 nm); format: biochemical
# T1 construct: porcine brain tubulin; purchased Cytoskeleton, Inc., Denver, Colorado; host or cells: porcine brain (tissue-purified)
# T1 sequence (P02550 whole entry): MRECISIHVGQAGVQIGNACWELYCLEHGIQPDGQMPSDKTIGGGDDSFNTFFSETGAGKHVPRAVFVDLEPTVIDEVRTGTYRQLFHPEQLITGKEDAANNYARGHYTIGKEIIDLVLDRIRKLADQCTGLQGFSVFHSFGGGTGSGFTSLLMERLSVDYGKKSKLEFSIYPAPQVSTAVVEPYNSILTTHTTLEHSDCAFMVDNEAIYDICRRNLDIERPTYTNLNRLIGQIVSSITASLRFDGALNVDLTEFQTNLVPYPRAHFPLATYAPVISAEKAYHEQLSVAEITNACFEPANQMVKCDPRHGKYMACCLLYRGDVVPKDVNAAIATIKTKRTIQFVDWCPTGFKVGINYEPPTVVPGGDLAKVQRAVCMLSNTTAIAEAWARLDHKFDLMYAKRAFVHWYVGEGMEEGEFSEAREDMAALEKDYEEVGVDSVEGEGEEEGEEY
# T1 sequence (P02554 whole entry): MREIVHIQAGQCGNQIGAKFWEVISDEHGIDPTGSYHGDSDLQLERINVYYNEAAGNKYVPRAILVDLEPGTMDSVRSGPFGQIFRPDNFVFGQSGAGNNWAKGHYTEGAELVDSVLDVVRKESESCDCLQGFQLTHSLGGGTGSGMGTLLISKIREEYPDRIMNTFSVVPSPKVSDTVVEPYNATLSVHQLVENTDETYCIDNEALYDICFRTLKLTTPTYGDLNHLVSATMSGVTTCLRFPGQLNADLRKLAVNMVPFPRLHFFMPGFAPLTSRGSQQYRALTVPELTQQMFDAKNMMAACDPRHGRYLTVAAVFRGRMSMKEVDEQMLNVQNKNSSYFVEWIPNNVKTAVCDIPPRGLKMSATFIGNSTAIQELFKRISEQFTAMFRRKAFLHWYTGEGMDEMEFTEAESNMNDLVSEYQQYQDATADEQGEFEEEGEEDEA
# Procedure: The effect of CLR01 on tubulin polymerization was analyzed using a commercial kit (Cytoskeleton, Inc., Denver, Colorado). Three mg/ml porcine brain tubulin (~18 μM) were allowed to polymerize at 37 °C in the absence or presence of CLR01 concentrations ranging from 10–1,000 μM. The turbidity of the solution was measured as absorbance at λ = 340 nm using a Synergy HT microplate reader (BioTek, Winooski, VT). The data are an average of three independent experiments with two wells per condition.
# As stated above, the mechanism by which CLR01 remodels the assembly of amyloidogenic proteins into non-toxic assemblies that can be degraded by normal clearance mechanisms is by its specific binding to Lys residues. The mechanism is “process-specific” because it is postulated to affect only the aberrant assembly of proteins that leads to toxic oligomers and aggregates, but not normal protein structure, function, or assembly as happens, e.g., in tubulin polymerization. To test whether this indeed is the case, we examined the effect of CLR01 on tubulin polymerization. Three mg/ml (~18 μM) porcine brain tubulin, which contains 3.8% Lys and 4.8% Arg, was allowed to polymerize in the absence or presence of CLR01 concentrations ranging from 10–1,000 μM.
# [4] = biological target: alcohol dehydrogenase (ADH); design: method as in PMID 18605724; conditions: ADH concentration of 208 nM; cited from earlier work
# [5] = design: method as in PMID 23183235; conditions: 3H-CLR01 IV, 12-m old WT and 3×Tg AD mice; cited from earlier work
# [6] = design: method as in PMID 23183235; conditions: mouse plasma; cited from earlier work
compound,measurement,setting,value
O=P(O)(O)Oc1c2c(c(OP(=O)(O)O)c3c1C1CC3c3cc4c(cc31)C1CC4c3ccccc31)C1CC2c2cc3c(cc21)C1CC3c2ccccc21 [CLR01],Stability,[1],100%
same,Inhibition of five major cytochrome P450 isoforms,[2],minimal inhibition
same,Inorganic phosphate released on incubation with brain homogenate,[3],no release of inorganic phosphate was detected
same,Concentration ratio for disruption of tubulin polymerization relative to ratios needed for inhibition of aggregation of amyloidogenic proteins,porcine brain tubulin,20–50 times higher
same,Absorbance observed immediately (λ = 340 nm),"porcine brain tubulin; 1,000 μM CLR01, 0.05-0.09 without or with up to 300 μM",0.15 absorbance units
same,Concentrations that did not significantly affect the polymerization of tubulin,"porcine brain tubulin; 3 mg/ml (~18 μM) tubulin, 37 °C",up to 300 μM
same,Concentration at which significant modulation of tubulin polymerization was observed,"porcine brain tubulin; 3 mg/ml (~18 μM) tubulin, 37 °C, CLR01 tested at 10–1,000 μM","1,000 μM"
same,pIC50,[4],3.74
same,"Radioactivity levels in the brain, % of blood levels",[5],~ 2%
same,Stability,[6],100%
